Results from ChEMBL document CHEMBL2074254, “Substrate specificity of sinusoidal bile acid and organic anion uptake systems in rat and human liver” (Hepatology, 1997).

The compounds below were run against T1, Hepatic sodium/bile acid cotransporter (Homo sapiens, UniProt Q14973) (assay: TP_TRANSPORTER: uptake in Xenopus laevis oocytes). Conditions: oocyte.
T1 sequence (Q14973 whole entry): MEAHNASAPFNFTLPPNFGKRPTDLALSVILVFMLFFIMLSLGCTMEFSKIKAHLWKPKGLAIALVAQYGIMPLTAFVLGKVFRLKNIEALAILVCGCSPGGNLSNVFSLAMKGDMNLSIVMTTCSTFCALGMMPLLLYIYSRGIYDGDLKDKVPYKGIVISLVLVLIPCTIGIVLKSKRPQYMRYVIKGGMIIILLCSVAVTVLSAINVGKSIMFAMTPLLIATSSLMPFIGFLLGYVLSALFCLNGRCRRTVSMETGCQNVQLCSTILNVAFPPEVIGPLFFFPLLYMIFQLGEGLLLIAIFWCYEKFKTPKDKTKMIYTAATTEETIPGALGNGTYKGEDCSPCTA
Assay type: functional, cell-based

| Structure (SMILES) | Activity |
| --- | --- |
| C[C@H](CCC(=O)NCCS(=O)(=O)O)[C@H]1CC[C@H]2[C@@H]3[C@@H](O)C[C@@H]4C[C@H](O)CC[C@]4(C)[C@H]3CC[C@]12C [TAURURSODIOL] | substrate [+] |
| O=C1OC(c2ccc(O)c(S(=O)(=O)[O-])c2)(c2ccc(O)c(S(=O)(=O)[O-])c2)c2c(Br)c(Br)c(Br)c(Br)c21.[Na+].[Na+] [SULFOBROMOPHTHALEIN SODIUM] | substrate [+] |

Second part, the compound after the results:

| Activity | Structure (SMILES) |
| --- | --- |
| substrate [+] | C[C@]12CC[C@@H]3c4ccc(OS(=O)(=O)O)cc4CC[C@H]3[C@@H]1CCC2=O [ESTRONE SULFURIC ACID] |
| substrate [+] | C[C@H](CCC(=O)NCCS(=O)(=O)O)[C@H]1CC[C@H]2[C@@H]3[C@H](O)C[C@@H]4C[C@H](O)CC[C@]4(C)[C@H]3CC[C@]12C [TAUROCHENODEOXYCHOLATE] |
| substrate [+] | C[C@H](CCC(=O)NCC(=O)O)[C@H]1CC[C@H]2[C@@H]3[C@H](O)C[C@@H]4C[C@H](O)CC[C@]4(C)[C@H]3C[C@H](O)[C@]12C [GLYCOCHOLIC ACID] |
